The text below walks through data of US4151291A, “Ethers of 7-hydroxy-coumarin useful as medicaments” (Unicler, priority 1976, dated 1979).

One data set in a line: oral LD50. As to conditions: in vivo. The protocol:
In addition the oral LD50 was determined for the compounds of the invention.

The subject of data set [1] is pain syndrome provoked in mice by injection of phenylbenzoquinone. As to the kind of experiment: analgesia test of Siegmund, Cadmus and Lu (phenylbenzoquinone-induced pain syndrome). Type of data set: in vivo, mice of Swiss strain. The conditions noted are these: oral, 30 minutes before phenylbenzoquinone, extensions counted over 10 minutes vs control. The protocol: They have in particular been submitted to the test of analgesia of Siegmund, Cadmus and Lu (Proc. Soc. Exp. Biol. Med. 95, 729, 1957) according to which a characteristic pain syndrome is provoked in mice by injection of phenylbenzoquinone.
The animals used are mice of Swiss strain weighing 20±2 grams.
The animals are separated into groups of 10, randomly but are individually submitted to experiments. Each experiment is carried out on at least two groups:
a control group receiving solvent and phenylbenzoquinone
a group treated with test compound.
The test compounds are administered orally, 30 minutes before the injection of the irritant. Each mouse then receives intraperitoneally 0.25 ml of a 0.02% phenylbenzoquinone solution.
The pain syndrome generated by the injection of phenylbenzoquinone consists of extension of the abdomen and the back legs; at the height of the reaction, the flanks of the animal are very contracted. 5 Minutes after the injection of the irritant, the extensions are counted over a period of 10 minutes.
For each group, the mean number of extensions is calculated. The activity (A) of the test compound is determined by comparison between the mean number of extensions in the treated animals (N) and the mean number of extensions in the control animals (N') according to the equation [formula]
The statistical significance of the result thus obtained is evaluated by the non-parametric test of Fisher.

Where only a bound is given, the exact number is not on record here.

Broadly, the LD50 is the dose expected to kill half of the subjects tested. In turn, `Cc1cc(=O)oc2cc(OCC#CCN(C)C)ccc12` [JB 16, 4-Methyl-7-(4-dimethylamino-but-2-ynyloxy)-coumarin] had an LD50 in the data set “oral LD50” of 500 mg/kg. For the same compound, the “Analgesic Activity A” value in data set [1] (dose 50 mg/kg) is recorded as 30%.
`C#CCOc1ccc2c(C)c(CC)c(=O)oc2c1` [JB 4, 3-Ethyl-4-methyl-7-propargyloxy-coumarin] came in with an LD50 in “oral LD50” of 1000 mg/kg. Besides, the “Analgesic Activity A” value in data set [1] (dose 100 mg/kg) stood at 65%.
As for `C#CCOc1ccc2c(C)cc(=O)oc2c1` [JB 2, 4-Methyl-7-propargyloxy-coumarin], the LD50 in “oral LD50” is 1500 mg/kg. Further, the “Analgesic Activity A” value in data set [1] (dose 150 mg/kg) is reported as 98%.
For `C#CCOc1ccc2c(C)c(CC=C)c(=O)oc2c1` [JB 19, 3-Allyl-4-methyl-7-propargyloxy-coumarin], in that order: 1500 mg/kg and 81%.
Take `C#CCOc1ccc2c(-c3ccccc3[N+](=O)[O-])cc(=O)oc2c1` [JB 5, 4-o-nitrophenyl-7-propargyloxy-coumarin]: the LD50 in the data set “oral LD50” was more than 2000 mg/kg. The “Analgesic Activity A” value in data set [1] (dose 200 mg/kg) amounted to 40%.
For the compound `Cc1cc(=O)oc2cc(OCC#CCN3CCOCC3)ccc12` [JB 12, 4-Methyl-7-(4-morpholino-but-2-ynyloxy)-coumarin], in “oral LD50”, the LD50 turned out to be 1500 mg/kg. For the same compound, the “Analgesic Activity A” value in data set [1] (dose 150 mg/kg) was 88%.
`C#CCOc1ccc2ccc(=O)oc2c1` [JB 1, 7-Propargyloxy-coumarin]: the LD50 in the data set “oral LD50” was determined as 1500 mg/kg. Moreover, the “Analgesic Activity A” value in data set [1] (dose 150 mg/kg) came to 55%.
